US20090258949A1, “AMORPHOUS FORM OF CINACALCET” (priority 2006, published 2009)
Structures can show the parent of a compound that is named as a salt.

Assay: Stress stability of amorphous Cinacalcet Hydrochloride, assay by HPLC
Type: physicochemical
Details: stressed in a closed vial at 60° C. for 24 hours
Protocol: A sample of amorphous Cinacalcet Hydrochloride from Example 1 was stressed in a closed vial at 60° C. for 24 hours. […] Vol 7 μm; temperature 40° C. sample preparation: approximately 10 mg of sample dissolved in 25 ml of eluent B gradient: [table] Area %/mg of starting material and stressed sample were compared

- decrease in assay measured by HPLC (area %/mg of starting material and stressed sample compared): No decrease in assay
SMILES: C[C@@H](NCCCc1cccc(C(F)(F)F)c1)c1cccc2ccccc12 [N-[1-(R)-(−)-(1-naphthyl)ethyl]-3-[3-(trifluoromethyl)phenyl]-1-aminopropane hydrochloride]
